2 compounds from patent publication US7683061B2, “Triazine dimers for the treatment of autoimmune diseases” (ProMetic BioSciences Inc., priority 2003, dated 2010) can be followed below.

For assay [1], the target named is T1, TNFα / p55 TNFα receptor (CD120a) (Homo sapiens, UniProt P01375). Briefly: Binding ELISA: sTNF-R1 binding to plastic coated TNF-α. The protocol: (§1) Compounds were tested for their ability to bind to TNFα or inhibit the interaction of TNFα with its respective receptors; p55 and p75 TNFα receptor. Three binding ELISA assays were undertaken as described by Mancini et al. Biochemical Pharmacology 58, 851-859 (1999). TNFα or receptor (1 μg/mL) was coated on a 96-well plate Maxisorp, overnight at 4° C. After incubation, unbound TNFα or p55 TNFα receptor or p75 TNFα receptor was removed and the plate washed three times with PBS. The plate was then incubated with 100 μL/well of a 2% BSA solution for 1 h at 37° C. to block non specific protein binding. After incubation, the plate was washed three times with PBS. Biotinylated recombinant human TNFα p55 or p75 receptor or biotinylated recombinant human TNFα was added to the wells in the presence or absence of compounds. The plate was incubated for 1 h at 37° C. After incubation, the plate was washed three times with PBS to remove unbound labeled p55 or p75 receptor or recombinant human TNFα. 100 μL of avidin-HRP (diluted 1/2000 in PBS-0.1% BSA) was added to each well and incubated 1 h at 37° C. Bound p55 or p75 receptor or recombinant human TNFα was detected by the addition of 200 μL of 3,3′,5,5′-tetramethylbenzidine (TMB) per well for 15 min. The plate was then read at 655 nm on a EL 800 universal Microplate reader (Bio-Tek, Mississauga, Canada). Data was analyzed in Microsoft Excel and recorded as the percentage of inhibition of p55 or p75 binding to TNFα or TNFα binding to RI (p55) or RII (p75).
(In general: An ELISA detects its analyte on a solid surface through an enzyme-linked reagent.)

In assay [2] the test system is female Lewis rats, adjuvant-induced arthritis. As to the kind of experiment: Freund's adjuvant-induced arthritis (AIA). The format is in vivo. The settings on record: for reduction of the inflammatory index: intravenous days −3, −2, −1, 12, 13, 14, 18, 19 and 20, from day 3 to day 5, FIG. 10. From the text:
AIA was induced in female Lewis rats by the injection of lyophilized Mycobacterium butyricum suspended in mineral oil into the footpad. The development of aridity was monitored over a 3 weeks period post-adjuvant injection, inflammation peaks at day 3 following the adjuvant administration. Immune activation appears around day 14. Compounds were orally or intravenously administered at different doses at day −3, −2 and −1 pre-adjuvant injection and at different regimen as specified in the exponent starting from day 10 through 21 post-adjuvant injection or animals were treated with oral admiration of compound 19a from day −3 to day 21. Body weight was recorded. The arthritis index, which is a measure of inflammation (oedema), redness and stiffness of the articulations, was used to monitor the development of the disease. The degree of arthritis was determined by measuring two perpendicular diameters of the ankles in the mediolateral and dorsoventral planes using a caliper. Joint circumference in millimeters is then calculated using a geometric formula. Both the incidence and severity of the arthritis was evaluated. Incidence is defined as the number of rats with clinical evidence of joint inflammation during the study period.

The test system of assay [3] is female Lewis rats, collagen-induced arthritis. Briefly: Collagen-induced arthritis (CIA). The class given is in vivo. To be noted: intravenous; from day 16 to day 21. The protocol:
Collagen-induced arthritis (CIA) was induced in female Lewis rats by intradermal administration of heterologous (bovine) type II collagen (250 μg) solubilized in 0.1 M acetic acid and emulsified in Complete Freund's Adjuvant (CFA). Rats were treated with the vehicle or methotrexate or compound 1 by intravenous injections at day 8, 9, 12, 14 and 16. Synovitis typically develops 12-15 days postimmunization in 80-90% of the animals. Once arthritis appears, each paw was examined two to three times a week. Both the incidence and severity of the arthritis was evaluated. Incidence is defined as the number of rats with clinical evidence of joint inflammation during the study period while severity was quantified by scoring daily each paw integer on a scale of 0 to 4 (0=normal, 4=maximum; Table 7) based on increasing levels of swelling, periarticular erythema and stiffness. The sum of the scores for all four paws was calculated as the arthritic index with a maximum possible score of 16 per rat. Since CIA primarily affects hind limbs, scores of 6-8 represent severe arthritis.

Assay [4] concerns the target T1, TNFα / p55 TNFα receptor (CD120a). As to the kind of experiment: Binding ELISA: TNF-α binding to plastic coated TNF-R1. To be noted: for inhibition at 100 µM: 10^−4 M; for inhibition at 10 µM: 10^−5 M. The protocol:
as §1

The test system of assay [5] is mice, oxazolone-induced DTH. As to the kind of experiment: Oxazolone-induced delayed-type hypersensitivity (DTH). The format is in vivo. To be noted: for inflammation as seen by ear thickness: administered orally at day 0, 1 and 2, FIG. 8. The protocol:
Compounds were tested for their ability to treat oxazolone-induced delayed-type hypersensitivity (DTH) in mice. On day 0, mice were sensitized with 100 μL of oxazolone in 5% acetone. On day 0, 1 and 2, mice were treated by intravenous or oral administrations of the vehicle (control) or methotrexate (MTX, positive control/IV) or hydrocortisone (positive control/PO) or the compound at 50 mg/kg to 300 mg/kg of body weight. Mice were challenged with an application of 50 μL of oxazolone on the surface of the right ear (first challenge, day 3; second challenge, day 10). Ear thickness was measured on day 4 to day 7, and on day 11 to 14. Redness and crust formation was also observed. Mice were sacrificed on day 14. TDTH (CD4) cells play an important role in regulating the intensity of the DTH response. Compounds may exert an inhibitory influence on the DTH response through its inhibition of T-cell activation and DNA, RNA and or protein synthesis.

The subject of the next assay is MRL/lpr mice. As to the kind of experiment: SLE-like syndrome in MRL/lpr mice. The format is in vivo. The settings on record: control group 10%. The source says: FIG. 5 is an example of the effect of compounds on survival of MRL/lpr mice. These mice also spontaneously develop SLE-like syndrome. MRL/lpr have a homozygous fas mutation, which accelerates autoimmunity. […] Furthermore, compounds 1 and 20 increase the survival (40%) compared to the control group (10%).

The target in assay [6] is TNFα / p75 TNFα receptor (CD120b) (Homo sapiens, UniProt P01375). As to the kind of experiment: Binding ELISA: sTNF-R2 binding to plastic coated TNF-α. As to the method:
as §1

The test system of the next assay is RAW 264.7 cells. Briefly: Phagocytosis of FITC-immune complexes by RAW 264.7 cells. The format is cell-based. As to the method:
This assay was performed to determine the ability of protein A mimic compounds to stimulate or inhibit uptake of FITC-Immune Complex (IC). FITC-IC was prepared by mixing human serum albumin (HSA)-fluorescein isothiocyanate (FITC) with mouse IgG anti-HSA at a 1:4 ratio (four molecules of antibody for one molecule of antigen) on a rotary shaker for 1 h at room temperature. Soluble IC was then incubated with or without compounds or protein A for 10 min. This mixture was added to RAW 264.7 cells and incubated for 2 h at 37° C. for IC phagocytosis. After incubation, cells were washed twice in cold PBS (5 min, 1200 rpm) and fixed with 500 μL PBS containing 2% formaldehyde. FITC signal taken up by RAW 264.7, which is indicative of IC phagocytosis, was determined by flow cytometry analysis in a Becton Coulter counter with an argon laser and signal was measured through a 530/30 nm filter.

T1 sequence (P01375 77-233 limits assumed): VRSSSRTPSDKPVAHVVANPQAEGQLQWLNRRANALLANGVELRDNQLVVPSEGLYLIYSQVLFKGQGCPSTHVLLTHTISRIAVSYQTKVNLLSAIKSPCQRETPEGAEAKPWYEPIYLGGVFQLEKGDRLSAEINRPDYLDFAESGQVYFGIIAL
Chain of TNFα / p75 TNFα receptor (CD120b) (P01375 77-233 limits assumed): as above

`Oc1ccc(CCNc2nc(NCCNc3nc(NCCc4ccc(O)cc4)nc(Nc4ccccc4)n3)nc(Nc3ccccc3)n2)cc1` [Compound 1]: the figures for the inhibition at 100 µM in assay [1] (10^−4 M), in assay [4] and in assay [6] (10^−4 M) were 2.7%, 46% and 0%, respectively. Moreover, the inhibition at 10 µM amounted to 0% in assay [1] (10^−5 M), 28.9% in assay [4] and 0% in assay [6] (10^−5 M). The “reduction of the inflammatory index” value in assay [2] worked out at 20%. For the same compound, the “reduction of the arthritic index” value in assay [3] was 20%. Moreover, in assay [5], the “inflammation as seen by ear thickness” value is listed as “significant reduction of the inflammation”. Also, the “survival of MRL/lpr mice” value in the assay on MRL/lpr mice was found to be 40%. For the same compound, the “inhibition of phagocytosis of IC” value with RAW 264.7 cells (10 and 20 μM) is given as “approximately 20%”. The “phagocytosis of IC” value in the assay with RAW 264.7 cells (concentrations of 1, 2 and 4 μM) is given as “increase”.
As for `Nc1ccc(CCNc2nc(Nc3ccc(CCNc4nc(NCCO)nc(Nc5cccc(N)c5)n4)cc3)nc(Nc3cccc(N)c3)n2)cc1` [Compound 19a], the “inhibition of chronic inflammation (days 12 to 21)” value in assay [2] (IV, days 12 to 19) was “strong and significant inhibition of inflammation”; in assay [2] (PO, day 16) it was “strong and significant inhibition of inflammation”. Besides, the “reduction of the inflammatory index” value in assay [2] was 20%. The inhibition of inflammation entry is recorded as “significant inhibition of inflammation” in assay [2] (oral administration, acute inflammation, compared to the control and methotrexate); “up to 50%” in assay [2] (orally every day (days −3 to 21), from day 13 through day 22, FIG. 12). In addition, the inhibition at 100 µM in assay [4] was 13.3%. Besides, in assay [4], the inhibition at 10 µM was -4%. Besides, the “potency compared to methotrexate” value in assay [5] (FIGS. 6 and 7) is recorded as “equipotent to methotrexate”. Besides, in assay [5], the “inflammation as seen by ear thickness” value is recorded as “significant reduction of the inflammation”.

In general, inhibition refers to the drop in the measured response relative to a control, in per cent.
